Measurements from patent US8466281B2, “2,5-disubstituted morpholine orexin receptor antagonists” (Merck Sharp & Dohme Corp., priority 2008, dated 2013).

Legend:
orexin-1 receptor (OX1R) = molecular target: T1, orexin-1 receptor (OX1R) (UniProt O43613); assay: Radioligand binding assay, OX1R; conditions: membranes prepared from CHO cells expressing the orexin-1 (OX1) receptor
T1 sequence (O43613 1-425): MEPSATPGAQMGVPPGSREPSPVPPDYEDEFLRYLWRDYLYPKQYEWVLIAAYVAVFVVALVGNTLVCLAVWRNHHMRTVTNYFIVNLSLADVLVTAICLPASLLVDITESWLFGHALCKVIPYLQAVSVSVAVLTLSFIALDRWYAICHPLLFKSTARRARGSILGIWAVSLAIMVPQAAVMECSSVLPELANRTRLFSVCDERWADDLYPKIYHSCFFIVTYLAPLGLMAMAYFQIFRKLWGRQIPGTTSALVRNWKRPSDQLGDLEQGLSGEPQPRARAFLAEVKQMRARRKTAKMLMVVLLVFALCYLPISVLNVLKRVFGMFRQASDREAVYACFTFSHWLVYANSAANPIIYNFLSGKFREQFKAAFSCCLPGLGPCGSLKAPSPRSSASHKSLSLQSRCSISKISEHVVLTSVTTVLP

orexin-2 receptor (OX2R) = molecular target: T2, orexin-2 receptor (OX2R) (Homo sapiens, UniProt O43614); assay: Radioligand binding assay, OX2R; conditions: membranes prepared from CHO cells expressing the orexin-2 (OX2) receptor
T2 construct: expressed in transfected cells; host or cells: CHO cells (membranes)
T2 sequence (O43614 1-444): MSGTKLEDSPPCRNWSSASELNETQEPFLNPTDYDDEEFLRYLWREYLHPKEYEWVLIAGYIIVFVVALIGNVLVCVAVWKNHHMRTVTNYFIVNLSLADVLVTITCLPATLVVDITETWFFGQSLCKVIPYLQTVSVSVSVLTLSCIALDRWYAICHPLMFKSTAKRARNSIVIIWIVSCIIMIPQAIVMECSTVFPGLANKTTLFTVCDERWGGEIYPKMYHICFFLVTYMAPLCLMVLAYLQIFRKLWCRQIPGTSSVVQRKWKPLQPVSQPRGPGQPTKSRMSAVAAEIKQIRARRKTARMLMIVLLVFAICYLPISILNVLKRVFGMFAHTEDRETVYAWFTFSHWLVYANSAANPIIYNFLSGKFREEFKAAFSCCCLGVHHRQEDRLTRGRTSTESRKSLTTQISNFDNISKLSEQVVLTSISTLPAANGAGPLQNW

SMILES	Ki (orexin-1 receptor (OX1R))	Ki (orexin-2 receptor (OX2R))
Cc1ccc(-n2nccn2)c(C(=O)N2C[C@H](COc3nccc4ccccc34)OC[C@H]2C)c1 [A-9, 1-({(2R,5R)-5-methyl-4-[5-methyl-2-(2H-1,2,3-triazol-2-yl)benzoyl]morpholin-2-yl}methoxy)isoquinoline]	23 nM	
Cc1ccc(-n2nccn2)c(C(=O)N2C[C@H](COc3ccc(Br)cn3)OC[C@H]2C)c1 [A-10]	21 nM	1.3 nM
Cc1ccc(-n2nccn2)c(C(=O)N2C[C@H](COc3ccnc4ccccc34)OC[C@H]2C)c1 [A-12, 4-({(2R,5R)-5-methyl-4-[5-methyl-2-(2H-1,2,3-triazol-2-yl)benzoyl]morpholin-2-yl}methoxy)quinoline]	17 nM	39 nM

Results, then the compound that gave them:

Ki (orexin-1 receptor (OX1R))	Ki (orexin-2 receptor (OX2R))	SMILES
720 nM	8.3 nM	Cc1ccc(-n2nccn2)c(C(=O)N2C[C@H](COc3ncccc3C)OC[C@H]2C)c1 [A-13, (2R,5R)-5-methyl-2-{[(3-methylpyridin-2-yl)oxy]methyl}-4-[5-methyl-2-(2H-1,2,3-triazol-2-yl)benzoyl]morpholine]
2.2 nM		Cc1ccc(-n2nccn2)c(C(=O)N2C[C@H](COc3nccc4ccccc34)OC[C@H]2C)c1 [A-11, 1-({(2R,5R)-5-methyl-4-[5-methyl-2-(2H-1,2,3-triazol-2-yl)benzoyl]morpholin-2-yl}methoxy)isoquinoline]
